Broadly, the % inhibition is how much of the control response was suppressed. By IC50 is commonly meant the concentration that inhibits the measured activity by half. Low values mean higher potency, high ones lower potency.

Oligonucleotides are written 5' to 3', each unit as a sugar letter and its base; * is a phosphorothioate linkage, no mark a phosphodiester; rarer units and linkages stand in square brackets, end groups in braces. Plain capitals give the bases only. k = constrained ethyl (cEt); [5mC] = 5-methylcytosine; d = 2'-deoxy (DNA)

The subject of data set [1] is AR mRNA. Nature of the data set: Antisense inhibition of human AR in HuVEC cells, single concentration (electroporation, qRT-PCR RTS3559). In kind it is cell-based. Summed up:
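AR mRNA levels were measured with human primer-probe set RTS3559 and adjusted for total RNA (RIBOGREEN). Cells were HuVEC, with each antisense oligonucleotide delivered by electroporation at one concentration.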
For orientation: Quantitative PCR measures a nucleic acid by following its amplification.

Data set [2] relates to AR mRNA. Put plainly: Dose-dependent antisense inhibition of human AR in HuVEC cells (electroporation, qRT-PCR RTS3559, IC50). In kind it is cell-based. The conditions noted are these: HuVEC, electroporation, approximately 16 hours. In outline:
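HuVEC cells dosed with antisense oligonucleotides by electroporation and treated approximately 16 hours. AR mRNA quantified by real-time qPCR with primer probe set RTS3559 and normalised to total RNA by RIBOGREEN; IC50 from dose-response.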

[3] abbreviates: Table 19, 500 nM oligonucleotide, electroporation, approximately 24 hours, relative to untreated control.
Where [4] appears, read: Table 20, 500 nM oligonucleotide, electroporation, approximately 24 hours, relative to untreated control.

Turning to “583566 (antisense k[5mC]*k[5mC]*kT*dT*dG*d[5mC]*dT*dT*d[5mC]*d[5mC]*dT*d[5mC]*d[5mC]*kG*kA*kG) [compound 583566]”, the “% inhibition” value in data set [1] (500 nM ASO, ~24 h, Table 16) turned out to be 47%. Also, in data set [2] (Table 29), the “percent inhibition of AR, 46.9 nM” value came to 0%; the “percent inhibition of AR, 187.5 nM” value is given as 28%; the “percent inhibition of AR, 750.0 nM” value was found to be 50%; the “percent inhibition of AR, 3000.0 nM” value was 74%. Also, 730 nM corresponded to half-maximal inhibition in data set [2] (Table 29) (IC50).

For “583787 (antisense kG*kG*kT*dG*d[5mC]*dT*dG*dG*d[5mC]*d[5mC]*dT*d[5mC]*dG*k[5mC]*kT*k[5mC]) [compound 583787]”, in data set [1] (setting [3]), the “% inhibition” value is on record as 37%. Moreover, in data set [2] (Table 32), the “percent inhibition of AR, 46.9 nM” value was determined as 15%; the “percent inhibition of AR, 187.5 nM” value is given as 31%; the “percent inhibition of AR, 750.0 nM” value worked out at 66%; the “percent inhibition of AR, 3000.0 nM” value is listed as 74%. In data set [2] (Table 32), this substance registered a concentration for half-maximal inhibition (IC50) of 430 nM.

Take “583821 (k[5mC]*kA*kG*dA*dA*dA*dT*dG*dG*dT*d[5mC]*dG*dA*kA*kG*kT) [compound 583821]”: the “% inhibition” value in data set [1] (setting [3]) is recorded as 42%. Further, in data set [2] (Table 31), the “percent inhibition of AR, 46.9 nM” value was found to be 11%; the “percent inhibition of AR, 187.5 nM” value was 35%; the “percent inhibition of AR, 750.0 nM” value came to 61%; the “percent inhibition of AR, 3000.0 nM” value is reported as 77%. For the same substance, it took 460 nM to reach half-maximal inhibition in data set [2] (Table 31) (IC50).

“584006 (kA*k[5mC]*kA*d[5mC]*dA*dA*dG*dT*dG*dG*dG*dA*d[5mC]*kT*kG*kG; antisense) [compound 584006]”: the “% inhibition” value in data set [1] (Table 22, 500 nM oligonucleotide, electroporation, approximately 24 hours, relative to untreated control) is given as 33%. In data set [2] (Table 34), the “percent inhibition of AR, 46.9 nM” value is on record as 21%; the “percent inhibition of AR, 187.5 nM” value is listed as 26%; the “percent inhibition of AR, 750.0 nM” value was 59%; the “percent inhibition of AR, 3000.0 nM” value is reported as 88%. Half-maximal inhibition in data set [2] (Table 34) (IC50) required 350 nM.

Regarding “583687 (antisense kG*kG*kT*dA*dG*dT*d[5mC]*dG*d[5mC]*dT*dG*d[5mC]*dA*kG*k[5mC]*kT) [compound 583687]”, the “% inhibition” value in data set [1] (500 nM ASO, ~24 h, Table 18) was found to be 41%. Further, in data set [2] (Table 30), the “percent inhibition of AR, 46.9 nM” value worked out at 34%; the “percent inhibition of AR, 187.5 nM” value is recorded as 67%; the “percent inhibition of AR, 750.0 nM” value was found to be 83%; the “percent inhibition of AR, 3000.0 nM” value is 81%. The same substance returned an IC50 in data set [2] (Table 30) of 80 nM.

Turning to “583833 (kT*kG*kT*dT*d[5mC]*d[5mC]*d[5mC]*d[5mC]*dT*dG*dG*dA*d[5mC]*kT*k[5mC]*kA; antisense) [compound 583833]”, in data set [1] (setting [4]), the “% inhibition” value was determined as 37%. In data set [2] (Table 33), the “percent inhibition of AR, 46.9 nM” value is given as 26%; the “percent inhibition of AR, 187.5 nM” value stood at 43%; the “percent inhibition of AR, 750.0 nM” value amounted to 70%; the “percent inhibition of AR, 3000.0 nM” value stood at 74%. The substance also registered an IC50 in data set [2] (Table 33) of 260 nM.

Turning to “583835 (kG*kA*kA*dG*d[5mC]*dT*dG*dT*dT*d[5mC]*d[5mC]*d[5mC]*d[5mC]*kT*kG*kG; antisense) [compound 583835]”, the “% inhibition” value in data set [1] (setting [4]) is 44%. Besides, in data set [2] (Table 32), the “percent inhibition of AR, 46.9 nM” value is 20%; the “percent inhibition of AR, 187.5 nM” value worked out at 55%; the “percent inhibition of AR, 750.0 nM” value came out at 74%; the “percent inhibition of AR, 3000.0 nM” value turned out to be 88%. This substance also gave an IC50 in data set [2] (Table 32) of 190 nM.

Take “584111 (kG*kT*kT*dT*dT*d[5mC]*dA*dA*dA*dT*dG*d[5mC]*dA*kG*k[5mC]*k[5mC]; antisense) [compound 584111]”: the “% inhibition” value in data set [1] (Table 23, 500 nM oligonucleotide, electroporation, approximately 24 hours, relative to untreated control) amounted to 33%. For the same substance, in data set [2] (Table 35), the “percent inhibition of AR, 46.9 nM” value is listed as 22%; the “percent inhibition of AR, 187.5 nM” value turned out to be 30%; the “percent inhibition of AR, 750.0 nM” value is given as 59%; the “percent inhibition of AR, 3000.0 nM” value is recorded as 84%. In data set [2] (Table 35), this substance registered a half-maximal inhibitory concentration (IC50) of 330 nM.

On to “583789 (antisense kT*kG*k[5mC]*dA*dT*dG*dG*dT*dG*d[5mC]*dT*dG*dG*k[5mC]*k[5mC]*kT) [compound 583789]”, for which the “% inhibition” value in data set [1] (setting [3]) worked out at 39%. In addition, in data set [2] (Table 31), the “percent inhibition of AR, 46.9 nM” value stood at 30%; the “percent inhibition of AR, 187.5 nM” value is recorded as 49%; the “percent inhibition of AR, 750.0 nM” value worked out at 71%; the “percent inhibition of AR, 3000.0 nM” value worked out at 85%. The substance also registered an IC50 in data set [2] (Table 31) of 190 nM.

For the origin of these results see patent USRE48461E1, “Modulation of androgen receptor expression” (Ionis Pharmaceuticals, Inc., priority 2012, dated 2021).
